Results from US20260108584A1, “TREATMENT OF OBESITY-ASSOCIATED INFLAMMATORY CONDITIONS” (THE UNIVERSITY OF BIRMINGHAM, priority 2023, published 2026).

How the values were obtained:
[1] = system: leukocyte trafficking; test: Prophylactic PEPITEM, 6 weeks HFD: leukocyte subsets by flow cytometry; assay type: in vivo, C57BI/6J wild type (WT) mice
Protocol: (§1) Eight-week-old, male, C57BI/6J wild type (WT) mice were purchased from Charles River and were maintained in a specific pathogen free facility, with free access to food. Environmental conditions were: 21±2° C., 55±10% relative humidity and a 12 hour light-dark cycle. Mice were fed high fat diet (HFD) containing 60% fat (cat no. D12492, Research Diets, INC) for up to 12 weeks. Alzet mini pumps 2006 (Charles River) containing 3.5 mg/ml of PEPITEM (SVTEQGAELSNEER-PEG (352)-Amide; Cambridge Research Biochemicals Limited; Cambridge, UK) or phosphate buffered saline (PBS) were implanted at baseline (prophylactic administration) or following 6 weeks of HFD (therapeutic administration), continuously releasing 0.822 mg of content/week. Body weight was assessed weekly. Intraperitoneal glucose tolerance tests (IPGTT) were assessed at 3, 6, 8, and 12 weeks in mmol/l using Contour XT glucometer as described in Nasteska, D. et al., JCI Insight 6, doi: 10.1172/jci.insight. 140288 (2021). Mice were culled […] blood collected into ethylenediaminetetraacetic acid (EDTA) coated eppendorfs^RTM. The peritoneal cavity was lavaged with 5 mM EDTA, spleen and inguinal lymph nodes were isolated and stored in PBS. Gonadal visceral fat pads and abdominal subcutaneous fat was stored in RPMI 1640 media (Gibco) containing 2% BSA and pancreas was FFPE as described in Nasteska, D. et al (supra).
(§2) All tissue samples were weighed prior to processing. Fat tissue was broken into pieces, incubated in an enzyme cocktail consisting of 200 μg/ml Collagenase P (Sigma), 800 μg/ml Collagenase Dispase, 100 μg/ml DNase (both Merck) diluted in Roswell Park Memorial Institute medium (RPMI) containing 2% fetal bovine serum (FBS) at 37° C. for 30 min before being passed through 70 UM filter. Samples were washed by centrifugation in RPMI containing 2% FBS at 400 g (g-force) for 10 minutes and the stromal vascular fraction re-suspended in red blood cell (RBC) lysis buffer for 10 minutes. Samples were then washed by centrifugation at 400 g and re-suspended in RPMI containing 2% FBS. The spleen and lymph node were crushed through a […] filter. Spleen, lymph node and blood samples were all incubated in the RBC lysis buffer as described prior to re-suspension in magnetic-activated cell sorting (MACS) buffer. Peritoneal lavage fluid (PLF) were centrifuged at 400 g for 5 minutes and the cells were resuspended in MACS buffer.
(§3) All samples were blocked with Fc receptor (FcR) blocker (Miltenyi Biotec) prior to staining with the following of antibodies and Zombie Aqua (Biolegend) for 20 minutes at 4° C. prior to washing and fixation with 2% paraformaldehyde (PFA): anti-CD45.2 BV605 (clone 104; Biolegend), anti-CD3 PECy7 (clone 145-2c11), anti-CD4 eFluor450 (clone GK1.5), anti-CD8 PE-TexasRed ^RTM (clone 5H10), anti-CD44 FITC (clone IM7), anti-CD25 AF700 (clone PC61.5), anti-KLRG1 APC-eFluor780 (clone 2F1), anti-CD62L PE (clone MEL-14), anti-CD19-APC (clone 1D3), anti-CD45 APC-CY7 (clone 104), F4/80 FITC (clone BM8), anti-CD11c PE-Cy7 (clone N418), anti-Gp38 PE (clone 8.1.1; all from Thermofisher); anti-CD23 BV421 (clone B3B4), anti-CD93 BV650 (clone AA4.1), anti-CD43 PerCp-Cy5.5 (clone S7), anti-CD21/35 PE (clone 7G6), anti-Siglec F TexasRed^RTM (clone E50-2440), Ly6G APC (clone 1A8; all from BD). Compensation controls were generated using the cells isolated from the spleen. Immediately prior to analysis CountBright beads (Invitrogen) were added and samples were acquired using Fortessa-X20 and data analysed offline using FlowJo^RTM (V-10.2.6) (FIG. 4).

[2] = Therapeutic PEPITEM (last 6 of 12 weeks HFD): body weight and IPGTT; assay type: in vivo, C57BI/6J wild type (WT) mice
Protocol: as §1

[3] = system: pancreatic islets; test: Therapeutic PEPITEM (last 6 of 12 weeks HFD): pancreatic islet immunofluorescence imaging; assay type: in vivo, C57BI/6J wild type (WT) mice
Protocol: (§4) Eight-week-old, male, C57BI/6J wild type (WT) mice were purchased from Charles River and were maintained in a specific pathogen free facility, with free access to food. Environmental conditions were: 21±2° C., 55±10% relative humidity and a 12 hour light-dark cycle. Mice were fed high fat diet (HFD) containing 60% fat (cat no. D12492, Research Diets, INC) for up to 12 weeks. […] Body weight was assessed weekly. Intraperitoneal glucose tolerance tests (IPGTT) were assessed at 3, 6, 8, and 12 weeks in mmol/l using Contour XT glucometer as described in Nasteska, D. et al., JCI Insight 6, doi: 10.1172/jci.insight. […]
(§5) Slides were imaged using Zeiss Axioscan 7 Slide Scanner at 20× magnification using the same acquisition parameters for each slide. Images were initially processed with ZEN Software (Black Edition v2.2) into digital arrays, which were subsequently analysed with ImageJ (1.53K). […] Average number of islets and islet area were determined and expressed as number or area/10,000 μm^2 of the whole pancreatic section area, as previously described by Slavin, B et al., Anat. […]

[4] = system: pancreatic islets; test: Prophylactic PEPITEM, 6 weeks HFD: pancreatic islet immunofluorescence imaging; assay type: in vivo, C57BI/6J wild type (WT) mice
Protocol: as §4, §5

[5] = system: J774 murine macrophages cells; test: In vitro cytokine analysis, LPS-stimulated J774 cells (ELISA); assay type: cell-based; settings: 10 ng ml^−1 PEPITEM 15 minutes pre-treatment, LPS (10 μg ml^−1) 24 h, vs PBS (FIG. 7)
Protocol: J774 murine macrophages cells were pre-treated with 10 ng ml^−1 PEPITEM (SVTEQGAELSNEER; Cambridge Research Biochemicals Limited; Cambridge, UK) or phosphate buffered saline (PBS—as control) for 15 minutes and then stimulated with LPS (10 μg ml^−1) for 24 h. Cell supernatants were collected and analysed for the protein expression of IL-6 and TNF-α by ELISA.

[6] = system: leukocyte trafficking; test: Therapeutic PEPITEM (last 6 of 12 weeks HFD): leukocyte subsets by flow cytometry; assay type: in vivo, C57BI/6J wild type (WT) mice
Protocol: as §1, §2, §3

[7] = Prophylactic PEPITEM, 6 weeks HFD: body weight and IPGTT; assay type: in vivo, C57BI/6J wild type (WT) mice
Protocol: as §1

PEPITEM [SVTEQGAELSNEER, 14-amino-acid immunopeptide derived from 14.3.3.ζδ]
number of T-cell subsets, B-cell subsets, neutrophils, eosinophils or macrophages in the blood, inguinal lymph node or spleen ([1]; 6 weeks HFD, prophylactic (FIG. 6)): no effect | T-cells (CD3+) in visceral adipose tissue ([1]; 6 weeks HFD, prophylactic, vs HFD control (FIG. 1(E))): Significantly fewer | CD4+ T cells in visceral adipose tissue ([1]; 6 weeks HFD, prophylactic, vs HFD control (FIG. 1(F))): Significantly fewer | KLRG1+CD3+ T-cells in visceral adipose tissue ([1]; 6 weeks HFD, prophylactic, vs HFD control (FIG. 1(G))): Significantly fewer | T-cells (CD3+) in peritoneal cavity ([1]; 6 weeks HFD, prophylactic, vs HFD control (FIG. 1(H))): Significantly fewer | KLRG1+CD3+ T-cells in peritoneal cavity ([1]; 6 weeks HFD, prophylactic, vs HFD control (FIG. 1(I))): Significantly fewer | macrophages within the peritoneal cavity ([1]; 6 weeks HFD, prophylactic, vs PBS (FIG. 1(J)), back to levels of chow-fed mice): significant reduction | absolute numbers of macrophages in the VAT ([1]; HFD-fed mice, model (6 or 12 weeks) not specified): did not influence | glucose tolerance ([2]; 8 or 12 weeks of diet, therapeutic (FIG. 5(D))): no effect | weight of the mouse ([2]; 12 weeks HFD, therapeutic (FIG. 5(C))): no effect | overall number of islets ([3]; vs control mice (FIG. 2(B))): without affecting | pancreatic islet size ([3]; vs control mice (FIG. 2(C))): significantly reduced | number of pancreatic islets ([4]; vs PBS (FIG. 1(C))): no effect | individual area of pancreatic islets ([4]; vs PBS (FIG. 1(D))): significantly reduced | amount of IL-6 secreted [5]: significant reduction | amount of TNFalpha secreted [5]: significant reduction | CD3+KLRG1+ T-cells numbers in the peritoneal cavity ([6]; therapeutic (FIG. 2(H))): no effect | number of CD3+KLRG1+ T-cells in the blood ([6]; therapeutic (FIG. 2(I))): lower | number of age-associated B-cells in the blood ([6]; therapeutic (FIG. 2(J))): lower | number of neutrophils in the blood ([6]; therapeutic (FIG. 2(K))): lower | composition of leukocyte subsets in subcutaneous adipose tissue ([6]; therapeutic (data not shown)): no effect | B-cell numbers in the spleen ([6]; therapeutic, vs PBS (FIG. 3(E))): elevated | age-associated B-cell numbers in the spleen ([6]; therapeutic, vs PBS (FIG. 3(F))): elevated | number of CD45+ leukocytes in the spleen ([6]; therapeutic, vs control animals (FIG. 3(A))): increased | number of CD3+ T-cells in the spleen ([6]; therapeutic, vs control animals (FIG. 3(B))): increased | number of CD45+ leukocytes in the inguinal lymph node ([6]; therapeutic, vs control animals (FIG. 3(C))): increased | number of CD3+ T-cells in the inguinal lymph node ([6]; therapeutic, vs control animals (FIG. 3(D))): increased | number of CD3+ T-cells in the VAT ([6]; therapeutic, vs vehicle control (FIG. 2(D))): significant reduction | number of CD4+ T-cells in the VAT ([6]; therapeutic, vs vehicle control (FIG. 2(E))): significant reduction | number of CD3+KLRG1+ T-cells in the VAT ([6]; therapeutic, vs vehicle control (FIG. 2(F))): significant reduction | macrophage numbers in the peritoneal cavity ([6]; therapeutic, vs vehicle control (FIG. 2(G))): significant reduction | body weight ([7]; 6 weeks HFD, prophylactic mini pump, vs PBS (FIG. 5(A))): unaffected | fasting glucose tolerance or insulin resistance ([7]; week 3 or 6 of HFD, prophylactic, vs PBS (FIG. 5(B))): no effect
